# Test results: ChEMBL document CHEMBL3860071, “Discovery and structure-activity relationship studies of quinolinone derivatives as potent IL-2 suppressive agents” (Bioorg Med Chem, 2016)
# The source made the active and inactive calls. No cut-off for these calls is given here.
# Tests used:
# [1] = Cytotoxicity against human Jurkat T cells assessed as cell survival at 10 uM measured after 3 days by MTT assay; format: toxicity, cell-based; details: read-out: Survival
# Jurkat [2] = assay: Immunosuppressive activity in human PMA/ionomycin stimulated Jurkat T cells assessed as suppression of IL2 production pretreated with cells followed by PMA/ionomycin stimulation measured after 13 hrs by ELISA; format: functional, cell-based
# Jurkat [3] = assay: Immunosuppressive activity in human PMA/ionomycin stimulated Jurkat T cells assessed as suppression of IL2 production at 1 uM pretreated with cells followed by PMA/ionomycin stimulation measured after 13 hrs by ELISA; format: functional
# Jurkat [4] = assay: Immunosuppressive activity in human PMA/ionomycin stimulated Jurkat T cells assessed as suppression of IL2 production at 10 uM pretreated with cells followed by PMA/ionomycin stimulation measured after 13 hrs by ELISA; format: functional
# Jurkat [5] = assay: Immunosuppressive activity in human anti-CD3/anti-CD28 stimulated Jurkat T cells assessed as suppression of IL2 production at 10 uM pretreated with cells followed by anti-CD3/CD28 stimulation measured after 13 hrs by ELISA; format: functional
# Jurkat [6] = assay: Inhibition of NFkappaB activation in human anti-CD3/anti-CD28 stimulated Jurkat T cells at 10 uM measured by renilla luciferase reporter gene assay relative to control; format: cell-based
# [7] = Half life in rat liver […] S9 fraction at 5 uM in presence of NADPH by LC-MS/MS analysis; format: ADME, subcellular
# CYP2C9 [8] = target: T1, CYP2C9 (Homo sapiens, UniProt P11712); assay: Inhibition of recombinant human CYP2C9 expressed in baculosomes at 10 uM preincubated with protein prior to substrate addition measured after 40 mins in presence of NADP regeneration system by fluorimetric analysis; format: ADME
# T1 sequence (P11712 whole entry): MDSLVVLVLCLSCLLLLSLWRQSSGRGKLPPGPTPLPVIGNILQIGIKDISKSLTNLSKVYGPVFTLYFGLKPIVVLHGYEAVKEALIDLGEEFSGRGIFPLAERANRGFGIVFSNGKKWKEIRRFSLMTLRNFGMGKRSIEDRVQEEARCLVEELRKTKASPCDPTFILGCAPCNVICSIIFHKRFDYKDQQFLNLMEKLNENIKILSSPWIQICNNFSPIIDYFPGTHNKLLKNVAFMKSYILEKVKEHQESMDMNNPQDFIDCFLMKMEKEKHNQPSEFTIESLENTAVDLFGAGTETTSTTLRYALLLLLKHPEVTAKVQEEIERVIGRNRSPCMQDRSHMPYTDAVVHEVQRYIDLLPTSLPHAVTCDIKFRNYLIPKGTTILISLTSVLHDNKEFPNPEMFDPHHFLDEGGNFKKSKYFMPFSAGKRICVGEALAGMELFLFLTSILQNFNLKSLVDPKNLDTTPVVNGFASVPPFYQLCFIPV
# [9] = target: T2, NF-kappa-B inhibitor alpha (Homo sapiens) (UniProt P25963); assay: Inhibition of IkappaBalpha phosphorylation in human anti-CD3/anti-CD28 stimulated Jurkat T cells at 10 uM pretreated with cells followed by anti-CD3/anti-CD28 stimulation measured up to 60 mins immunoblot analysis; format: cell-based
# T2 sequence (whole entry): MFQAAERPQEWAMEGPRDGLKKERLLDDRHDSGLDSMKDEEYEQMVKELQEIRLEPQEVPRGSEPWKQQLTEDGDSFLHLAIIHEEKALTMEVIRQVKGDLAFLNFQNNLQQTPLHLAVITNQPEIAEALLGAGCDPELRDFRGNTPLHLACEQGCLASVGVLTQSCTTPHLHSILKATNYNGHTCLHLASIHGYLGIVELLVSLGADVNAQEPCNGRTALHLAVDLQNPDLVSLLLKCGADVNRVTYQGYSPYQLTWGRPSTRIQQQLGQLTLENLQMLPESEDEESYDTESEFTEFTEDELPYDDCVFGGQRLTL
# [10] = target: T3, Inhibitor of nuclear factor kappa-B kinase subunit beta (Homo sapiens) (UniProt O14920); assay: Inhibition of recombinant full length human N-terminal His6-tagged IKKbeta expressed in baculovirus infected sf21 cells at 10 uM using IKKtide as substrate after 40 mins in presence of [gamma33P]ATP by scintillation counting method relative to control
# T3 sequence (whole entry): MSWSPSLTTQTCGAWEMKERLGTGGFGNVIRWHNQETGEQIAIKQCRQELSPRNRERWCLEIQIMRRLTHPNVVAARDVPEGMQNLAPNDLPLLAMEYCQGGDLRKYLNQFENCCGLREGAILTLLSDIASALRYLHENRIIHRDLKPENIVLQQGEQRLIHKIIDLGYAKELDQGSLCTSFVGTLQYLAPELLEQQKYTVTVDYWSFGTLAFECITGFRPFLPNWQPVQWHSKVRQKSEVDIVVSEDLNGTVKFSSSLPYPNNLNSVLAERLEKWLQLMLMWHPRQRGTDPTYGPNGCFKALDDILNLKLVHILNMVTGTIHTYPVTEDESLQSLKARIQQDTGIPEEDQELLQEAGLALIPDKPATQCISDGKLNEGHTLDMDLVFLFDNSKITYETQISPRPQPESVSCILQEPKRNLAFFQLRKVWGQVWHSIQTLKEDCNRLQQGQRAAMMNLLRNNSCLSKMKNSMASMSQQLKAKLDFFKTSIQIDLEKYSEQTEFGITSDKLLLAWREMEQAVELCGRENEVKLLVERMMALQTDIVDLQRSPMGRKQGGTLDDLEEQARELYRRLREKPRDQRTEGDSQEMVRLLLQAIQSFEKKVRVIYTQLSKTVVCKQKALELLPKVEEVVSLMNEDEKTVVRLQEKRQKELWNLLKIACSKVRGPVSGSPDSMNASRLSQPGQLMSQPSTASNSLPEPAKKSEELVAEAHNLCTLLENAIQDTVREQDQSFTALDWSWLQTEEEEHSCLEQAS
# [11] = Half life in mouse liver […] S9 fraction at 5 uM in presence of NADPH by LC-MS/MS analysis; format: ADME, subcellular
# CYP2C9 [12] = target: T1, CYP2C9; assay: Inhibition of recombinant human CYP2C9 expressed in baculosomes at 1 uM preincubated with protein prior to substrate addition measured after 40 mins in presence of NADP regeneration system by fluorimetric analysis; format: ADME
# [13] = target: T4, Nuclear factor of activated T-cells, cytoplasmic 1 (Homo sapiens) (UniProt O95644); assay: Reduction in NFATc1 nuclear localization in human anti-CD3/anti-CD28 stimulated Jurkat T cells at 10 ug measured after 15 mins by SDS-PAGE and immunoblot analysis; format: cell-based
# T4 sequence (whole entry): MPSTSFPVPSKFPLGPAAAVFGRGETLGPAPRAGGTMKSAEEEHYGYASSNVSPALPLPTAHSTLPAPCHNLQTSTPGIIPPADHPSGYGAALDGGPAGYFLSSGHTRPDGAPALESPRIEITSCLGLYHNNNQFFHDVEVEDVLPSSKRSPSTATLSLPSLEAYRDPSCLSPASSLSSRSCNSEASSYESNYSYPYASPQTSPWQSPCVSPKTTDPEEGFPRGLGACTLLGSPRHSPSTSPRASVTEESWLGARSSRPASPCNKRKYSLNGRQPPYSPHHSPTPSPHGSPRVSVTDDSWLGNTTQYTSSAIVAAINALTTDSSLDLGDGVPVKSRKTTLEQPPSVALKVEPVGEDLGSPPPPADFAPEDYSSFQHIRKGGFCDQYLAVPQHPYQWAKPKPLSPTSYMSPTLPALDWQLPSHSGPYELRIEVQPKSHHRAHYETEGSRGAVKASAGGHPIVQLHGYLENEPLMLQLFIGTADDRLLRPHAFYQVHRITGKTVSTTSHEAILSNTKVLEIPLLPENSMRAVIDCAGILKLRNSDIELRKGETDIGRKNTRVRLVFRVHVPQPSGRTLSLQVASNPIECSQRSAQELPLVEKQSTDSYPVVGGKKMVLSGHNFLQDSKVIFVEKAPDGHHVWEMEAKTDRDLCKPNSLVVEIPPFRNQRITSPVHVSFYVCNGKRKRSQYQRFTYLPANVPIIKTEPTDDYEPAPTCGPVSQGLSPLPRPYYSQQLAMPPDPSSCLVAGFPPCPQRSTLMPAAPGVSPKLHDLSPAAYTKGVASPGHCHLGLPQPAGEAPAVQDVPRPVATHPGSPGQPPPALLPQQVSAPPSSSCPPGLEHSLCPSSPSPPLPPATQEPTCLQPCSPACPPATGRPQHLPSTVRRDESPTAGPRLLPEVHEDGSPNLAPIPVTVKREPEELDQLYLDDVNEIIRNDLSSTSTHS
# [14] = Half life in human liver S9 fraction at 5 uM in presence of NADPH by LC-MS/MS analysis; format: ADME, subcellular
SMILES,"viability at 72 h, 10 µM [1]",IC50 (Jurkat [2]),inhibition at 1 µM (Jurkat [3]),other results
O=C(NCCc1ccccc1)c1cc2c([N+](=O)[O-])cccc2n(Cc2ccc(Br)cc2)c1=O,64%,780 nM,,
COc1ccc(Cn2c(=O)c(C(=O)NCCc3ccc(OC)c(O)c3)cc3c(N)cccc32)cc1,99%,,37%,
COc1ccc(Cn2c(=O)c(C(=O)NCCc3ccccc3)cc3c(Cl)cccc32)cc1,87%,,44%,
COc1ccc(Cn2c(=O)c(C(=O)NCCc3ccccc3)cc3ccc([N+](=O)[O-])cc32)cc1,95%,,,
O=C(NCCc1ccccc1)c1cc2c([N+](=O)[O-])cccc2n(Cc2ccc([N+](=O)[O-])cc2)c1=O,97%,353 nM,,
CCN(C(=O)c1c(O)c2c(Cl)cccc2n(C)c1=O)c1ccccc1 [LAQUINIMOD],,,,inhibition at 10 µM (Jurkat [4]): 16%
O=C(NCCc1ccccc1)c1cc2c([N+](=O)[O-])cccc2n(Cc2ccc(OC(F)(F)F)cc2)c1=O,96%,160 nM,,inhibition at 10 µM (Jurkat [5]): 79%
CCc1ccc(Cn2c(=O)c(C(=O)NCCc3ccccc3)cc3c([N+](=O)[O-])cccc32)cc1,96%,155 nM,,inhibition at 10 µM (Jurkat [5]): 81%
O=C(NCCc1ccccc1)c1cc2c([N+](=O)[O-])cccc2n(Cc2ccc(F)cc2)c1=O,98%,720 nM,,
COc1ccc(Cn2c(=O)c(C(=O)NCCc3ccc(C)cc3)cc3c(N)cccc32)cc1,99%,,,
COc1ccc(Cn2c(=O)c(C(=O)NCCc3ccc(O)cc3)cc3c(N)cccc32)cc1,97%,,20%,
CC(C)(C)c1ccc(Cn2c(=O)c(C(=O)NCCc3ccccc3)cc3c([N+](=O)[O-])cccc32)cc1,94%,386 nM,,
CCc1ccc(Cn2c(=O)c(C(=O)NCCc3ccccc3)cc3c(Cl)cccc32)cc1,97%,401 nM,,
COc1ccc(Cn2c(=O)c(C(=O)NCC(C)C)cc3c(N)cccc32)cc1,99%,,,
Cc1ccc(Cn2c(=O)c(C(=O)NCCc3ccccc3)cc3c([N+](=O)[O-])cccc32)cc1,81%,,,
COc1ccc(Cn2c(=O)c(C(=O)NCCCc3ccccc3)cc3c(N)cccc32)cc1,97%,,11%,
CC(C)c1ccc(Cn2c(=O)c(C(=O)NCCc3ccccc3)cc3c(Cl)cccc32)cc1,91%,256 nM,,

SMILES,"viability at 72 h, 10 µM [1]",IC50 (Jurkat [2]),inhibition at 1 µM (Jurkat [3]),other results
COc1ccc(Cn2c(=O)c(C(=O)NCCc3ccc(Cl)cc3)cc3c(N)cccc32)cc1,96%,,19%,
CC(C)c1ccc(Cn2c(=O)c(C(=O)NCCc3ccccc3)cc3c([N+](=O)[O-])cccc32)cc1,93%,80 nM,,"inhibition (Jurkat [6]): Active; half-life at 5 µM [7]: 7 min; inhibition at 40 min, 10 µM (CYP2C9 [8]): 65%; inhibition [9]: Active; inhibition [10]: 29%; half-life at 5 µM [11]: 7 min; inhibition at 40 min, 1 µM (CYP2C9 [12]): 30%; inhibition [13]: Active; half-life at 5 µM [14]: 7 min; inhibition at 10 µM (Jurkat [5]): 83%"
COCCCNC(=O)c1cc2c(N)cccc2n(Cc2ccc(OC)cc2)c1=O,97%,,,
O=C(NCCc1ccccc1)c1cc2c([N+](=O)[O-])cccc2n(Cc2ccc(Cl)cc2)c1=O,97%,,39%,
CCc1ccc(CCNC(=O)c2cc3c(N)cccc3n(Cc3ccc(OC)cc3)c2=O)cc1,97%,,,
COc1ccc(CCNC(=O)c2cc3c(N)cccc3n(Cc3ccc(OC)cc3)c2=O)cc1,96%,,25%,
COc1ccc(Cn2c(=O)c(C(=O)NCCc3ccncc3)cc3c(N)cccc32)cc1,93%,,16%,
COc1ccc(Cn2c(=O)c(C(=O)NCCc3ccc(O)c(O)c3)cc3c(N)cccc32)cc1,98%,,14%,
O=C(NCCc1ccccc1)c1cc2c([N+](=O)[O-])cccc2n(Cc2ccccc2)c1=O,91%,,,
C/C=C/C[C@@H](C)[C@@H](O)[C@H]1C(=O)N[C@@H](CC)C(=O)N(C)CC(=O)N(C)[C@@H](CC(C)C)C(=O)N[C@@H](C(C)C)C(=O)N(C)[C@@H](CC(C)C)C(=O)N[C@@H](C)C(=O)N[C@H](C)C(=O)N(C)[C@@H](CC(C)C)C(=O)N(C)[C@@H](CC(C)C)C(=O)N(C)[C@@H](C(C)C)C(=O)N1C [CYCLOSPORINE],,11 nM,,
COc1ccc(Cn2c(=O)c(C(=O)NCCc3ccccc3)cc3c(N)cccc32)cc1,98%,,41%,
COc1ccc(Cn2c(=O)c(C(=O)NCc3ccccc3)cc3c(N)cccc32)cc1,98%,,30%,
COc1cccc(Cn2c(=O)c(C(=O)NCCc3ccccc3)cc3c([N+](=O)[O-])cccc32)c1,97%,,16%,
COc1ccc(Cn2c(=O)c(C(=O)NCCc3ccc4c(c3)OCO4)cc3c(N)cccc32)cc1,96%,,31%,
N#Cc1ccc(Cn2c(=O)c(C(=O)NCCc3ccccc3)cc3c([N+](=O)[O-])cccc32)cc1,95%,,28%,
COc1ccc(Cn2c(=O)c(C(=O)NCCc3ccc(Br)cc3)cc3c(N)cccc32)cc1,93%,,38%,
COc1ccc(Cn2c(=O)c(C(=O)NCCc3ccccc3)cc3c([N+](=O)[O-])cccc32)cc1,96%,924 nM,,
